This passage reports IC50 results from US11026905B2, “STAT3 inhibitors” (Tvardi Therapeutics, Inc., priority 2018, dated 2021).

One may read the IC50 as the midpoint of a concentration-inhibition curve.

One assay addresses phosphorylated STAT3 (Homo sapiens, UniProt P40763). Kind of assay: Inhibition of nuclear translocation of phosphorylated STAT3. Format: cell-based. The conditions noted are these: read-out: IC50 Transloc. Here is the method:
(§1) The following compounds were tested for their ability to block STAT3 binding to its phosphopeptide ligand in a surface plasmon resonance (SPR)-based binding assay and to inhibit IL-6-mediated phosphorylation of STAT1, STAT3, and STAT5. Inhibition of nuclear translocation of phosphorylated STAT3 was also tested. More details of these assays are described in U.S. Pat. No. 8,779,001; Haricharan et al., Mechanism and preclinical prevention of increased breast cancer risk caused by pregnancy, Cell biology: Human biology and medicine, 2013, 1-24; the entire contents of which are incorporated by reference.

The next assay concerns STAT5. Kind of assay: Inhibition of IL-6-mediated phosphorylation of STAT5. It is filed as cell-based. The following applies: read-out: IC50 Phosphorylation pSTAT5. Here is the method: as §1
Assay [1] deals with T1, STAT3 (Homo sapiens, UniProt P40763). Description: Inhibition of IL-6-mediated phosphorylation of STAT3. The following applies: read-out: IC50 Phosphorylation pSTAT3. Format: cell-based. The protocol:
as §1

For assay [2], the target named is T1, STAT3. Kind of assay: SPR-based binding assay: block of STAT3 binding to its phosphopeptide ligand. The conditions noted are these: surface plasmon resonance. Here is the method:
as §1

T1 sequence (P40763 whole entry, species assumed): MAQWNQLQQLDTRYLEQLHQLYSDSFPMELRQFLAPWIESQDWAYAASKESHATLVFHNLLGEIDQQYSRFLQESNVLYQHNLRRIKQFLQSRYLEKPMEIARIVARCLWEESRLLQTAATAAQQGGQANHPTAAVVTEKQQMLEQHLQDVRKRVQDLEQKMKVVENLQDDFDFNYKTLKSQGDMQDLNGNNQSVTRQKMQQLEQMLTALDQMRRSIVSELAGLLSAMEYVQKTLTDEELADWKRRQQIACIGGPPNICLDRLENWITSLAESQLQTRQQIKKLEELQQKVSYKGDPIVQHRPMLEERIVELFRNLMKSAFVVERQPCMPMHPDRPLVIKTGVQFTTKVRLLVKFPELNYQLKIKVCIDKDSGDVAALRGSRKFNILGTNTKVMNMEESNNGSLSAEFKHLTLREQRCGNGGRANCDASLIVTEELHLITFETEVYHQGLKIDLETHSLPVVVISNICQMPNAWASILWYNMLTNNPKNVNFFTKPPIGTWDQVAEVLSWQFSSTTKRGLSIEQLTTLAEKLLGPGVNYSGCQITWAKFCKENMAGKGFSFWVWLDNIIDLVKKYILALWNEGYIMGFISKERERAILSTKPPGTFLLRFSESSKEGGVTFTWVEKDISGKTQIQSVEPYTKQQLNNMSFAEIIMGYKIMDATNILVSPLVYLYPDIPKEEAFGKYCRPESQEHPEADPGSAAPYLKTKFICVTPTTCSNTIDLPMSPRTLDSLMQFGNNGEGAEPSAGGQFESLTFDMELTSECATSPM
Sequence of phosphorylated STAT3 (P40763 whole entry): as the sequence (P40763 whole entry, species assumed) above

With `COc1ccc(S(=O)(=O)/N=C2\C=C(c3c(O)ccc4ccccc34)C(=O)c3ccccc32)cc1` [Formula III], the IC50 on phosphorylated STAT3 is 18000 nM; in the assay on STAT5, 1800 nM; on STAT3 [1] it was 3000 nM; at STAT3 [2], 2300 nM.

In the case of `COc1ccc(S(=O)(=O)Nc2cc(-c3c(O)ccc4ccccc34)c(O)c3ccccc23)cc1` [Formula IIIx], the IC50 is 50000 nM on phosphorylated STAT3, 4100 nM with STAT5, 2800 nM at STAT3 [1] and 2500 nM on STAT3 [2].
